From PMC9648375, “Identification of the first-in-class dual inhibitors of human DNA topoisomerase IIα and indoleamine-2,3-dioxygenase 1 (IDO 1) with strong anticancer properties” (Journal of Enzyme Inhibition and Medicinal Chemistry, 2022)
Converted amounts (≈) assume the structure as drawn. Read-outs that look alike come from different tables or passages of the source.

Legend:
MTT assay = assay type: cell-based; conditions: human, HEK-293 cells (normal reference cell line), HEK-293 (normal cells), read-out: IC50, cytotoxicity
Protocol: (§1) Therefore, the whole set of compounds were tested by using MTT assay in order to check their overall cytotoxic effect. The growth of cells was monitored after 24 and 48 h of incubation with the increased concentrations (1–100 µg/ml) of the thiosemicarbazide derivatives. […] This confirms that the compounds tested combine different mechanisms of anticancer activity, and DNA topoisomerase II inhibition is only one of them.
(§2) Cytotoxicity of the synthesised compounds were examined against a panel of the cancer cell lines, MCF-7 (estrogen-dependent human breast cancer cells), MDA-MB-231 (oestrogen-independent human breast cancer cells), SCC- 25 (squamous cell carcinoma of the tongue), FaDu (squamous cell carcinoma of the pharynx), A- 549 (human lung carcinoma), AGS (human gastric adenocarcinoma), LS-180, HT-29 (colon cancer cell lines), T98G (glioblastoma cells), A375 (melanoma cells). Human embryonic kidney (HEK-293) cells and human normal skin fibroblasts (CRL-2072) were used as reference cell lines. The investigated cell lines were obtained from American Type Culture Collection (ATCC; Manassas, VA, USA). A375, MCF-7, MDA-MB-231, T98G cells were cultured in Dulbecco’s Modified Eagle’s Medium (DMEM) (Sigma Aldrich, St. Louis, MO, USA) supplemented with 10% heat inactivated foetal bovine serum (FBS), penicillin (100 U/mL), and streptomycin (100 μg/mL). SCC-25 cells were cultured in 1:1 mixture of Dulbecco’s modified Eagle’s medium and Ham’s F12 Medium (Sigma Aldrich, St. Louis, MO, USA) supplemented with 400 ng/ml hydrocortisone, 10% FBS, penicillin (100 U/mL), and streptomycin (100 μg/mL). A549 and AGS cells were maintained in F-12K Medium (Sigma Aldrich, St. Louis, MO, USA). LS-180 and FaDu cells were cultured in Eagle’s Minimum Essential Medium. HT-29 cells were maintained in McCoy’s 5 A Medium (Sigma Aldrich, St. Louis, MO, USA) supplemented with 10%FBS, penicillin (100 U/mL), and streptomycin (100 μg/mL). All the cells were maintained at 37 °C in a humidified atmosphere of 5% CO2.
(§3) The synthesised compounds were dissolved in DMSO in order to obtain stock solutions. At the day of the experiment, the suspension of cells (1 × 10^5 cells/mL) in the respective medium was applied to a 96-well plate at 100 μL per well. […] The control cells were cultured only with a medium containing 2% FBS. Cytotoxicity of DMSO was also checked at concentrations present in respective dilutions of stock solution. After 24 h (or 48 h) of incubation, 15 μL of MTT working solution (5 mg/mL in PBS) was added to each well. The plate was incubated for 3 h. Subsequently, 100 μL of 10% SDS solution was added to each well. Cells were incubated overnight at 37 °C to dissolve the precipitated formazan crystals. The concentration of the dissolved formazan was evaluated by measuring the absorbance at λ = 570 nm, using a microplate reader (Epoch, BioTek Instruments, Inc., Winooski, VT, USA). At least two independent experiments were performed in triplicates. The results of the MTT assay were expressed as mean ± SD. […] IC50 values of the investigated derivatives and standards were calculated using the IC50 calculator.[23]

A375 (melanoma cells) = test: MTT assay; assay type: cell-based; conditions: Homo sapiens, read-out: IC50, cytotoxicity
Protocol: as §1, §2, §3

[1] = test system: A549 (human lung carcinoma); test: MTT assay; assay type: cell-based; conditions: read-out: IC50, cytotoxicity
Protocol: as §1, §2, §3

[2] = test system: AGS (human gastric adenocarcinoma); test: MTT assay; assay type: cell-based; conditions: read-out: IC50, cytotoxicity
Protocol: as §1, §2, §3

[3] = test system: FaDu (squamous cell carcinoma of the pharynx); test: MTT assay; assay type: cell-based; conditions: Homo sapiens, read-out: IC50, cytotoxicity
Protocol: as §1, §2, §3

[4] = test system: HT-29 (colon cancer cell line); test: MTT assay; assay type: cell-based; conditions: Homo sapiens, HT-29, MTT, read-out: IC50, cytotoxicity
Protocol: as §1, §2, §3

[5] = test system: LS180 (colon cancer cell line); test: MTT assay; assay type: cell-based; conditions: Homo sapiens, read-out: IC50, cytotoxicity
Protocol: as §1, §2, §3

[6] = test system: MCF-7 (estrogen-dependent human breast cancer cells); test: MTT assay; assay type: cell-based; conditions: MCF7, MCF-7, MTT, read-out: IC50, cytotoxicity
Protocol: as §1, §2, §3

[7] = test system: MDA-MB-231 (estrogen-independent human breast cancer cells); test: MTT assay; assay type: cell-based; conditions: MDA-MB-231, MTT, read-out: IC50, cytotoxicity
Protocol: as §1, §2, §3

[8] = test system: SCC-25 (squamous cell carcinoma of the tongue); test: MTT assay; assay type: cell-based; conditions: Homo sapiens, SCC-25, MTT, read-out: IC50, cytotoxicity
Protocol: as §1, §2, §3

[9] = test system: T98G (glioblastoma cells); test: MTT assay; assay type: cell-based; conditions: Homo sapiens, read-out: IC50, cytotoxicity
Protocol: as §1, §2, §3

[10] = Solubility in culture media and buffers; assay type: physicochemical

Compound	IC50 at 24 h (MTT assay)	IC50 at 48 h (MTT assay)	IC50 (A375 (melanoma cells); A-375, 24h)	IC50 (A375 (melanoma cells); A-375, 48 h)	IC50 ([1]; 24h)	IC50 ([1]; 48h)	IC50 ([2]; 24h)	IC50 ([2]; 48 h)	IC50 ([3]; 24h)	IC50 ([3]; 48 h)	IC50 ([4]; 24h)	IC50 ([4]; 48 h)	IC50 ([5]; 24h)	IC50 ([5]; 48 h)	IC50 ([6]; 24h)	IC50 ([6]; 48h)	IC50 ([7]; 24h)	IC50 ([7]; 48h)	IC50 ([8]; 24h)	IC50 ([8]; 48 h)	further results
O=C(NNC(=S)Nc1c(F)cccc1F)c1ccccc1[N+](=O)[O-] [Compound 4, 4-(2,6-Difluorophenyl)-1-(2-nitrobenzoyl)thiosemicarbazide]	> 100 µg/mL	> 100 µg/mL	> 100 µg/mL	14.8 µg/mL (≈ 42 µM)	> 100 µg/mL	> 100 µg/mL	> 100 µg/mL	63.9 µg/mL (≈ 181 µM)	> 100 µg/mL	39.2 µg/mL (≈ 111 µM)	25 µg/mL (≈ 71 µM)	> 100 µg/mL	> 100 µg/mL	55.6 µg/mL (≈ 158 µM)	> 100 µg/mL	19.4 µg/mL (≈ 55.1 µM)	> 100 µg/mL	32.5 µg/mL (≈ 92.2 µM)	> 100 µg/mL	40.9 µg/mL (≈ 116 µM)	IC50 ([9]; 24h): 55.5 µg/mL (≈ 157 µM); IC50 ([9]; 48h): 7.26 µg/mL (≈ 20.6 µM); melting point: 278 to 280 °C
Cc1cccc(C(=O)NC(=S)NNC(=O)c2ccccc2[N+](=O)[O-])c1 [Compound 5, 4-(3-Methylobenzoyl)-1-(2-nitrobenzoyl)thiosemicarbazide]	78.1 µg/mL (≈ 218 µM)	24.6 µg/mL (≈ 68.6 µM)	89.3 µg/mL (≈ 249 µM)	38.5 µg/mL (≈ 107 µM)	> 100 µg/mL	> 100 µg/mL	> 100 µg/mL	63.9 µg/mL (≈ 178 µM)	> 100 µg/mL	31.7 µg/mL (≈ 88.4 µM)	45.2 µg/mL (≈ 126 µM)	12.3 µg/mL (≈ 34.3 µM)	> 100 µg/mL	19.8 µg/mL (≈ 55.4 µM)	> 100 µg/mL	28.1 µg/mL (≈ 78.5 µM)	> 100 µg/mL	56.3 µg/mL (≈ 157 µM)	> 100 µg/mL	17.3 µg/mL (≈ 48.3 µM)	IC50 ([9]; 24h): > 100 µg/mL; IC50 ([9]; 48h): 30.1 µg/mL (≈ 83.9 µM); melting point: 194 to 195 °C
O=C(NC(=S)NNC(=O)c1ccccc1[N+](=O)[O-])c1ccc([N+](=O)[O-])cc1 [Compound 6, 1-(2-Nitrobenzoyl)-4-(4-nitrobenzoyl)thiosemicarbazide]	> 100 µg/mL	60.1 µg/mL (≈ 154 µM)	> 100 µg/mL	7.98 µg/mL (≈ 20.5 µM)	20.8 µg/mL (≈ 53.3 µM)	23.4 µg/mL (≈ 60.2 µM)	23.5 µg/mL (≈ 60.3 µM)	29.8 µg/mL (≈ 76.5 µM)	12.9 µg/mL (≈ 33.1 µM)	14.8 µg/mL (≈ 37.9 µM)	22.8 µg/mL (≈ 58.5 µM)	6.78 µg/mL (≈ 17.4 µM)	> 100 µg/mL	10.4 µg/mL (≈ 26.7 µM)	> 100 µg/mL	15.9 µg/mL (≈ 40.9 µM)	> 100 µg/mL	16.8 µg/mL (≈ 43.3 µM)	26 µg/mL (≈ 66.7 µM)	9.78 µg/mL (≈ 25.1 µM)	IC50 ([9]; 24h): 8.41 µg/mL (≈ 21.6 µM); IC50 ([9]; 48h): 9.78 µg/mL (≈ 25.1 µM)
O=C(NNC(=S)NC(=O)c1ccccc1Cl)c1ccc(O)c([N+](=O)[O-])c1 [Compound 7, 4-(2-Chlorobenzoyl)-1-(4-hydroxy-3-nitrobenzoyl)thiosemicarbazide]	67.2 µg/mL (≈ 170 µM)	32.7 µg/mL (≈ 82.8 µM)	> 100 µg/mL	13.9 µg/mL (≈ 35.2 µM)	> 100 µg/mL	> 100 µg/mL	> 100 µg/mL	18.8 µg/mL (≈ 47.5 µM)	33.5 µg/mL (≈ 84.9 µM)	22.5 µg/mL (≈ 56.9 µM)	47.4 µg/mL (≈ 120 µM)	7.18 µg/mL (≈ 18.2 µM)	> 100 µg/mL	24.7 µg/mL (≈ 62.5 µM)	> 100 µg/mL	24.8 µg/mL (≈ 62.9 µM)	> 100 µg/mL	69.4 µg/mL (≈ 176 µM)	42.4 µg/mL (≈ 107 µM)	24.3 µg/mL (≈ 61.6 µM)	IC50 ([9]; 24h): 11.4 µg/mL (≈ 29 µM); IC50 ([9]; 48h): 10.7 µg/mL (≈ 27 µM)
O=C(Cc1cccc2ccccc12)NNC(=S)NC(=O)c1ccccc1Cl [Compound 8, 4-(2-Chlorobenzoyl)-1-[(naphth-1-yl)acetyl]thiosemicarbazide]	> 100 µg/mL	23.4 µg/mL (≈ 58.9 µM)	> 100 µg/mL	9.45 µg/mL (≈ 23.8 µM)	> 100 µg/mL	> 100 µg/mL	> 100 µg/mL	> 100 µg/mL	> 100 µg/mL	12.8 µg/mL (≈ 32.2 µM)	> 100 µg/mL	14.8 µg/mL (≈ 37.1 µM)	> 100 µg/mL	41.1 µg/mL (≈ 103 µM)	> 100 µg/mL	12.7 µg/mL (≈ 32 µM)	> 100 µg/mL	17.2 µg/mL (≈ 43.3 µM)	> 100 µg/mL	29.5 µg/mL (≈ 74.1 µM)	IC50 ([9]; 24h): 97.2 µg/mL (≈ 244 µM); IC50 ([9]; 48h): 11.8 µg/mL (≈ 29.7 µM); melting point: 174 to 176 °C
O=C(Cc1cccc2ccccc12)NNC(=S)NC(=O)c1ccccc1 [Compound 9, 4-Benzoyl-1-[(naphth-1-yl)acetyl]thiosemicarbazide]	67 µg/mL (≈ 184 µM)	23 µg/mL (≈ 63.4 µM)	> 100 µg/mL	8.14 µg/mL (≈ 22.4 µM)	> 100 µg/mL	> 100 µg/mL	> 100 µg/mL	19.7 µg/mL (≈ 54.1 µM)	28.2 µg/mL (≈ 77.5 µM)	19.5 µg/mL (≈ 53.7 µM)	> 100 µg/mL	5.23 µg/mL (≈ 14.4 µM)	> 100 µg/mL	19.8 µg/mL (≈ 54.5 µM)	> 100 µg/mL	16.4 µg/mL (≈ 45 µM)	> 100 µg/mL	> 100 µg/mL	32.2 µg/mL (≈ 88.6 µM)	34.5 µg/mL (≈ 94.9 µM)	IC50 ([9]; 24h): > 100 µg/mL; IC50 ([9]; 48h): 17.4 µg/mL (≈ 47.8 µM); melting point: 164 to 166 °C
O=C(Cc1cccc2ccccc12)NNC(=S)Nc1c(F)cccc1F [Compound 10, 4-(2,6-Difluorophenyl)-1-[(naphth-1-yl)acetyl]thiosemicarbazide]	63.7 µg/mL (≈ 172 µM)	19.5 µg/mL (≈ 52.5 µM)	47.9 µg/mL (≈ 129 µM)	30.1 µg/mL (≈ 81.2 µM)	92.6 µg/mL (≈ 249 µM)	32.8 µg/mL (≈ 88.4 µM)	29.5 µg/mL (≈ 79.3 µM)	21.1 µg/mL (≈ 56.7 µM)	20.1 µg/mL (≈ 54.2 µM)	29.7 µg/mL (≈ 80.1 µM)	32.9 µg/mL (≈ 88.7 µM)	32.2 µg/mL (≈ 86.6 µM)	72.4 µg/mL (≈ 195 µM)	12.6 µg/mL (≈ 33.8 µM)	64.1 µg/mL (≈ 173 µM)	20.6 µg/mL (≈ 55.6 µM)	83.4 µg/mL (≈ 225 µM)	68.1 µg/mL (≈ 183 µM)	52.4 µg/mL (≈ 141 µM)	23.9 µg/mL (≈ 64.2 µM)	IC50 ([9]; 24h): 47.2 µg/mL (≈ 127 µM); IC50 ([9]; 48h): 30.6 µg/mL (≈ 82.5 µM); melting point: 186 to 188 °C
O=C(NNC(=S)Nc1ccc(F)cc1F)c1ccccc1[N+](=O)[O-] [Compound 11, 4-(2,4-Difluorophenyl)-1-(2-nitrobenzoyl)thiosemicarbazide]																					solubility in culture media and buffers [10]: low solubility; melting point: 182 to 184 °C
Cc1cccc(C(=O)NC(=S)NNC(=O)c2ccc(O)c([N+](=O)[O-])c2)c1 [Compound 12, 4-(3-Methylbenzoyl)-1-(4-hydroxy-3-nitrobenzoyl)thiosemicarbazide]																					solubility in culture media and buffers [10]: low solubility; melting point: 190 to 192 °C
